Measured values reported in US7446199B2, “Compositions useful as inhibitors of protein kinases” (Vertex Pharmaceuticals Incorporated, priority 2003, dated 2008).
Several values for one entry are separate records, joined by “and”; a condition that tells them apart may be missing. Equal entries are not always repeated.

What was measured:
Type in all cases: biochemical
c-Met = c-Met (Homo sapiens, UniProt P08581); assay: Ki determination for the inhibition of c-Met, coupled enzyme system; details: 200 μM ATP, 10 μM polyGluTyr, 80 nM c-Met, 30° C.
How it was run: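 Coupled pyruvate kinase/lactate dehydrogenase NADH assay with 80 nM c-Met, 200 μM ATP, 10 μM polyGluTyr in pH 7.5 HEPES, 1.5% DMSO at 30° C. Compound (0.006–12.5 μM final, 12-point) preincubated 10 min; ATP started reaction, rates read over 10 min; Ki derived from rate versus inhibitor concentration.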

GSK-3β, (AA 1-420) = GSK-3β, (AA 1-420) (Homo sapiens, UniProt P49841); assay: GSK-3 inhibition assay, coupled enzyme system; details: 20 μM ATP, 300 μM peptide, 20 nM GSK-3b, 30° C.; read-out: Ki values (GSK3)
Procedure: Compounds of the present invention were screened for their ability to inhibit GSK-3β, (AA 1-420) activity using a standard coupled enzyme system (Fox et al., Protein Sci. 1998, 7, 2249). Reactions were carried out in a solution containing 100 mM HEPES (pH 7.5), 10 mM MgCl2, 25 mM NaCl, 300 μM NADH, 1 mM DTT and 1.5% DMSO. Final substrate concentrations in the assay were 20 μM ATP (Sigma Chemicals, St Louis, Mo.) and 300 μM peptide (American Peptide, Sunnyvale, Calif.). Reactions were carried out at 30° C. and 20 nM GSK-3b. Final concentrations of the components of the coupled enzyme system were 2.5 mM phosphoenolpyruvate, 300 μM NADH, 30 μg/ml pyruvate kinase and 10 μg/ml lactate dehydrogenase.
An assay stock buffer solution was prepared containing all of the reagents listed above with the exception of ATP and the test compound of the present invention. The assay stock buffer solution (175 μl) was incubated in a 96 well plate with 5 μl of the test compound of the present invention at final concentrations spanning 0.002 μM to 30 μM at 30° C. for 10 min. Typically, a 12 point titration was conducted by preparing serial dilutions (from 10 mM compound stocks) with DMSO of the test compounds of the present invention in daughter plates. The reaction was initiated by the addition of 20 μl of ATP (final concentration 20 μM). Rates of reaction were obtained using a Molecular Devices Spectramax plate reader (Sunnyvale, Calif.) over 10 min at 30° C. The Ki values were determined from the rate data as a function of inhibitor concentration.

KDR = KDR (Homo sapiens, UniProt P35968); assay: KDR enzyme assay, coupled enzyme assay; details: 300 μM ATP, 10 μM poly E4Y, 30 nM KDR, 37° C.
Procedure: Compounds were screened for their ability to inhibit KDR using a standard coupled enzyme assay (Fox et al., Protein Sci., (1998) 7, 2249). Assays were carried out in a mixture of 200 mM HEPES 7.5, 10 mM MgCl2, 25 mM NaCl, 1 mM DTT and 1.5% DMSO. Final substrate concentrations in the assay were 300 μM ATP (Sigma Chemicals) and 10 μM poly E4Y (Sigma). Assays were carried out at 37° C. and 30 nM KDR. Final concentrations of the components of the coupled enzyme system were 2.5 mM phosphoenolpyruvate, 200 μM NADH, 30 μg/ML pyruvate kinase and 10 μg/ml lactate dehydrogenase.
An assay stock buffer solution was prepared containing all of the reagents listed above, with the exception of ATP and the test compound of interest. 177 μl of the stock solution was placed in a 96 well plate followed by addition of 3 μl of 2 mM DMSO stock containing the test compound (final compound concentration 30 μM). The plate was preincubated for about 10 minutes at 37° C. and the reaction initiated by addition of 20 μl of ATP (final concentration 300 μM). Rates of reaction were obtained using a Molecular Devices plate reader (Sunnyvale, Calif.) over a 5 minute read time at 37° C.

Sequence of c-Met (P08581 25-1390): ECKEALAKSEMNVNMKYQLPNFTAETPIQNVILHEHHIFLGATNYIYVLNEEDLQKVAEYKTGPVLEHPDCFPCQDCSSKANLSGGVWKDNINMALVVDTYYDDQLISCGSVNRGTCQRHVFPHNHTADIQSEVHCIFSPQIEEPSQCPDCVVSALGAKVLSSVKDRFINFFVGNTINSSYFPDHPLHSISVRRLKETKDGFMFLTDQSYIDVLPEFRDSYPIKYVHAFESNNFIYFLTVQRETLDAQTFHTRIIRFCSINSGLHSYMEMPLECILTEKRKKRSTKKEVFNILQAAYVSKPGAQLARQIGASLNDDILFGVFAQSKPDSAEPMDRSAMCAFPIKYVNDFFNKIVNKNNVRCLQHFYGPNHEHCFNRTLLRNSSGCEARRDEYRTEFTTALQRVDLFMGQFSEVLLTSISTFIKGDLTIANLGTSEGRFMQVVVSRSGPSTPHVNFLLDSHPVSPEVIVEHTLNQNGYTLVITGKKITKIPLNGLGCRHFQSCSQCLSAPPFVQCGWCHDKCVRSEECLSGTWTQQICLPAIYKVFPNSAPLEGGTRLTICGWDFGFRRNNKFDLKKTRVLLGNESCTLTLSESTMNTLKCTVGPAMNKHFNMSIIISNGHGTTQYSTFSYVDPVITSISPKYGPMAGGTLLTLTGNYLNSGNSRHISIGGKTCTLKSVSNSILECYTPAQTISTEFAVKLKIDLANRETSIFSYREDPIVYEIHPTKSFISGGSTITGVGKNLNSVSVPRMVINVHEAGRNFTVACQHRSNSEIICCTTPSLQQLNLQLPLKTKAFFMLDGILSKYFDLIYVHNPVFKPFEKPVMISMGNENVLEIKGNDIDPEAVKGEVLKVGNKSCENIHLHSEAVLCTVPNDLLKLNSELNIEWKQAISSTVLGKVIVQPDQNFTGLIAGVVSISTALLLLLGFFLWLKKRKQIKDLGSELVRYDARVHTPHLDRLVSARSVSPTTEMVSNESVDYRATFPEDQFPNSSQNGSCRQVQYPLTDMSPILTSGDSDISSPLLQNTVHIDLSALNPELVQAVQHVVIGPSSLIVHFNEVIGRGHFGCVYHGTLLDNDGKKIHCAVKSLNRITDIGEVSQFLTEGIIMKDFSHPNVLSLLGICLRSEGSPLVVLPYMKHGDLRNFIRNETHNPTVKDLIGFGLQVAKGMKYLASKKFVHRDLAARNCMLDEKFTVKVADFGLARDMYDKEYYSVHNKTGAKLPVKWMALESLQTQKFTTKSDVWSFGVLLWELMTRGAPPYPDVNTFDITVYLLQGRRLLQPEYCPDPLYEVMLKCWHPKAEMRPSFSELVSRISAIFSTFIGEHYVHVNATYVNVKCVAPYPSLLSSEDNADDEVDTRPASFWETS
Sequence of GSK-3β, (AA 1-420) (P49841 whole entry, the tested form may be a part): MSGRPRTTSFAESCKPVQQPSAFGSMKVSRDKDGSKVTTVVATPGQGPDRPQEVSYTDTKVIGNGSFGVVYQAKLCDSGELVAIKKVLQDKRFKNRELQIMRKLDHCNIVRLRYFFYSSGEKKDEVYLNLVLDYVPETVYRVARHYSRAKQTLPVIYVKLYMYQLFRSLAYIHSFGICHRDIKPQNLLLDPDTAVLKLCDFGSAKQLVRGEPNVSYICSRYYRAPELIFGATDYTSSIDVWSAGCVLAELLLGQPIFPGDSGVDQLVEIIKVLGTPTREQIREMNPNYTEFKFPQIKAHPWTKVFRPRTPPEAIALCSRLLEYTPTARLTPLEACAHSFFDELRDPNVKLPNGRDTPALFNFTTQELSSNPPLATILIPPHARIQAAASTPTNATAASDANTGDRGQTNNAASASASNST
Sequence of KDR (P35968 20-1356): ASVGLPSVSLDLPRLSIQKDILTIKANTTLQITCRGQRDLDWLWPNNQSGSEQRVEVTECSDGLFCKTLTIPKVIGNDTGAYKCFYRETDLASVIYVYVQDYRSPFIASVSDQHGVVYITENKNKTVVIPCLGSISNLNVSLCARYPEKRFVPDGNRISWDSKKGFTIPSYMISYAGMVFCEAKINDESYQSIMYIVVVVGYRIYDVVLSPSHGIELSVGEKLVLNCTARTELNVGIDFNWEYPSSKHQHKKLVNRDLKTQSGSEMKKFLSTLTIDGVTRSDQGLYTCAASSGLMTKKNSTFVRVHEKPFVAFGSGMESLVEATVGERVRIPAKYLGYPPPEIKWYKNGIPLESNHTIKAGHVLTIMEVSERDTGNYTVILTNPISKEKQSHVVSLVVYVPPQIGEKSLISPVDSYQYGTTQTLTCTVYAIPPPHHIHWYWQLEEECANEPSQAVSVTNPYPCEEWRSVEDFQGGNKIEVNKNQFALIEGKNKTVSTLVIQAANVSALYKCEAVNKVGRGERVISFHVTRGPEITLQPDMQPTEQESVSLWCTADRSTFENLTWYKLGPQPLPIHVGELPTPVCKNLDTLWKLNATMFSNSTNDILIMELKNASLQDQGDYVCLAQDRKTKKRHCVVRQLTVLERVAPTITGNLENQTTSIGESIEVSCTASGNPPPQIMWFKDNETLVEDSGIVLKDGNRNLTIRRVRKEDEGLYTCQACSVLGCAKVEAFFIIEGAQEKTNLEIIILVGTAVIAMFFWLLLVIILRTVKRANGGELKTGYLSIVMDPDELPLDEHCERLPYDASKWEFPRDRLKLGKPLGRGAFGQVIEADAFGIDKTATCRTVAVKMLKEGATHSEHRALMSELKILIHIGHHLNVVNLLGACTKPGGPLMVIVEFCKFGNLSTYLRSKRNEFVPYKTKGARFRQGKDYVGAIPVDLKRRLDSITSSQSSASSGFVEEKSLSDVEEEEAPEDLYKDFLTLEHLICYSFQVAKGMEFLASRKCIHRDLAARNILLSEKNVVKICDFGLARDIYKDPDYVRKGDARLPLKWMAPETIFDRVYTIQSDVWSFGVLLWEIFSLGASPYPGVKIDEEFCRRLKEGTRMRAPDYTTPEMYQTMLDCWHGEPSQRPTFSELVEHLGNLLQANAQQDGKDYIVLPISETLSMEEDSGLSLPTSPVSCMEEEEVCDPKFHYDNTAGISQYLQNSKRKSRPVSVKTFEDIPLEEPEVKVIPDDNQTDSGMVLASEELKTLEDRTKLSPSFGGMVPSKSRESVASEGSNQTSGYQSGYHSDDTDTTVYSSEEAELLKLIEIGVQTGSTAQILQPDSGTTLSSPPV

Structure (SMILES)	Ki (c-Met)	Ki (GSK-3β, (AA 1-420))	Ki (KDR)
CC(=O)Nc1ccc(-c2cnc3[nH]cc(-c4oncc4-c4cccc(F)c4F)c3c2)cc1 [Compound 95, N-(4-{3-[4-(2,3-Difluoro-phenyl)-isoxazol-5-yl]-1H-pyrrolo[2,3-b]pyridin-5-yl}-phenyl)-acetamide]	< 200 nM	1000 to 12500 nM	200 to 1000 nM
CN(C)Cc1ccc(-c2cnc3[nH]cc(-c4oncc4-c4cccc(F)c4F)c3c2)nc1 [Compound 84, (6-{3-[4-(2,3-Difluoro-phenyl)-isoxazol-5-yl]-1H-pyrrolo[2,3-b]pyridin-5-yl}-pyridin-3-ylmethyl)-dimethyl-amine]	< 200 nM	200 to 1000 nM	< 200 nM
CN(C)Cc1ccc(-c2cnc3[nH]cc(-c4oncc4-c4cccc(F)c4F)c3c2)cc1 [Compound 91, (4-{3-[4-(2,3-Difluoro-phenyl)-isoxazol-5-yl]-1H-pyrrolo[2,3-b]pyridin-5-yl}-benzyl)-dimethyl-amine]	< 200 nM	1000 to 12500 nM	200 to 1000 nM
NC1CC=C(c2cnc3[nH]cc(-c4oncc4-c4cccc(F)c4F)c3c2)CC1 (stereo not shown) [Compound 137, 4-{3-[4-(2,3-Difluoro-phenyl)-isoxazol-5-yl]-1H-pyrrolo [2,3-b]pyridin-5-yl}-cyclohex-3-enylamine]	< 200 nM	< 200 nM	< 200 nM
Fc1cccc(-c2cnoc2-c2c[nH]c3ncc(-c4cnc5[nH]ccc5c4)cc23)c1F [Compound 77, 3-[4-(2,3-Difluoro-phenyl)-isoxazol-5-yl]-1H,1′H-[5,5′]bi[pyrrolo[2,3-b]pyridinyl]]	< 200 nM	200 to 1000 nM	< 200 nM
CS(=O)(=O)n1ccc2cc(-c3cnc4[nH]cc(-c5oncc5-c5cccc(F)c5F)c4c3)cnc21 [Compound 97, 3′-[4-(2,3-Difluoro-phenyl)-isoxazol-5-yl]-1-methanesulfonyl-1H, 1′H-[5,5′]bi[pyrrolo[2,3-b]pyridinyl]]	< 200 nM	< 200 nM	< 200 nM
CN1CCN(Cc2ccc(-c3cnc4[nH]cc(-c5oncc5-c5cccc(F)c5F)c4c3)cc2)CC1 [Compound 94, 3-[4-(2,3-Difluoro-phenyl)-isoxazol-5-yl]-5-[4-(4-methyl-piperazin-1-ylmethyl)-phenyl]-1H-pyrrolo[2,3-b]pyridine]	< 200 nM	200 to 1000 nM	< 200 nM
Fc1cccc(-n2cnnc2-c2c[nH]c3ncc(-c4ccc(CN5CCOCC5)cc4)cc23)c1F [Compound 109, 3-[4-(2,3-Difluoro-phenyl)-4H-[1,2,4]triazol-3-yl]-5-(4-morpholin-4-ylmethyl-phenyl)-1H-pyrrolo[2,3-b]pyridine]	< 200 nM	< 200 nM	200 to 1000 nM
CN(C)c1cccc(-c2cnc3[nH]cc(-c4oncc4-c4cccc(F)c4F)c3c2)c1 [Compound 61, (3-{3-[4-(2,3-Difluoro-phenyl)-isoxazol-5-yl]-1H-pyrrolo[2,3-b]pyridin-5-yl}-phenyl)-dimethyl-amine]	< 200 nM	200 to 1000 nM	200 to 1000 nM
COc1cncc(-c2cnc3[nH]cc(-c4oncc4-c4cccc(F)c4F)c3c2)c1 [Compound 96, 3-[4-(2,3-Difluoro-phenyl)-isoxazol-5-yl]-5-(5-methoxy-pyridin-3-yl)-1H-pyrrolo[2,3-b]pyridine]	< 200 nM	200 to 1000 nM	< 200 nM
CNc1ccc2c(-c3oncc3-c3cccc(F)c3F)c[nH]c2n1 [Compound 102, {3-[4-(2,3-Difluoro-phenyl)-isoxazol-5-yl]-1H-pyrrolo[2,3-b]pyridin-6-yl}-methyl-amine]	< 200 nM	1000 to 12500 nM	1000 to 12500 nM
Fc1cccc(Cc2cnoc2-c2c[nH]c3ncccc23)c1F [Compound 36, 3-[4-(2,3-Difluoro-benzyl)-isoxazol-5-yl]-1H-pyrrolo[2,3-b]pyridine]	1000 to 12500 nM	200 to 1000 nM	1000 to 12500 nM
COc1ccnc(-c2cnc3[nH]cc(-c4oncc4-c4cccc(F)c4F)c3c2)c1 [Compound 78, 3-[4-(2,3-Difluoro-phenyl)-isoxazol-5-yl]-5-(4-methoxy-pyridin-2-yl)-1H-pyrrolo[2,3-b]pyridine]	< 200 nM	200 to 1000 nM	< 200 nM
Fc1cccc(-c2cnoc2-c2c[nH]c3ncccc23)c1F [Compound 1, 3-[4-(2,3-Difluoro-phenyl)-isoxazol-5-yl]-1H-pyrrolo[2,3-b]pyridine]	< 200 nM	1000 to 12500 nM	1000 to 12500 nM
CN1CCN(C(=O)[C@H]2C[C@H]2c2cnc3[nH]cc(-c4oncc4-c4cccc(F)c4F)c3c2)CC1 (relative stereo) [Compound 143, cis-(2-{3-[4-(2,3-Difluoro-phenyl)-isoxazol-5-yl]-1H-pyrrolo[2,3-b]pyridin-5-yl}-cyclopropyl)-(4-methyl-piperazin-1-yl)-methanone]	200 to 1000 nM and 1000 to 12500 nM	1000 to 12500 nM	–
CCN1CCC(c2cnc3[nH]cc(-c4oncc4-c4cccc(F)c4F)c3c2)CC1 [Compound 72, 3-[4-(2,3-Difluoro-phenyl)-isoxazol-5-yl]-5-(1-ethyl-piperidin-4-yl)-1H-pyrrolo[2,3-b]pyridine]	< 200 nM	< 200 nM	–
Oc1cnc2[nH]cc(-c3oncc3-c3cccc(Cl)c3Cl)c2c1 [Compound 48, 3-[4-(2,3-Dichloro-phenyl)-isoxazol-5-yl]-1H-pyrrolo[2,3-b]pyridin-5-ol]	< 200 nM	1000 to 12500 nM	< 200 nM
Oc1cnc2[nH]cc(-c3oncc3-c3cccc(F)c3F)c2c1 [Compound 43, 3-[4-(2,3-Difluoro-phenyl)-isoxazol-5-yl]-1H-pyrrolo[2,3-b]pyridin-5-ol]	< 200 nM	200 to 1000 nM	200 to 1000 nM
CN1CCC(c2cnc3[nH]cc(-c4oncc4-c4cccc(F)c4F)c3c2)CC1 [Compound 60, 3-[4-(2,3-Difluoro-phenyl)-isoxazol-5-yl]-5-(1-methyl-piperidin-4-yl)-1H-pyrrolo[2,3-b]pyridine]	< 200 nM	200 to 1000 nM	–
Fc1cccnc1-c1cnc2[nH]cc(-c3oncc3-c3cccc(F)c3F)c2c1 [Compound 74, 3-[4-(2,3-Difluoro-phenyl)-isoxazol-5-yl]-5-(3-fluoro-pyridin-2-yl)-1H-pyrrolo[2,3-b]pyridine]	< 200 nM	–	1000 to 12500 nM
O=c1[nH]ccc2c(-c3oncc3-c3cccc(F)c3F)c[nH]c12 [Compound 145, 3-[4-(2,3-Difluoro-phenyl)-isoxazol-5-yl]-1,6-dihydro-pyrrolo[2,3-c]pyridin-7-one]	1000 to 12500 nM	200 to 1000 nM	–
CN(C)c1ccnc2[nH]cc(-c3oncc3-c3cccc(F)c3F)c12 [Compound 56, {3-[4-(2,3-Difluoro-phenyl)-isoxazol-5-yl]-1H-pyrrolo[2,3-b]pyridin-4-yl}-dimethyl-amine]	1000 to 12500 nM	–	200 to 1000 nM
Cn1ccc2c(-c3oncc3-c3cccc(F)c3F)c[nH]c2c1=O [Compound 144, 3-[4-(2,3-Difluoro-phenyl)-isoxazol-5-yl]-6-methyl-1,6-dihydro-pyrrolo[2,3-c]pyridin-7-one]	200 to 1000 nM	–	–
Fc1cccc(-c2cnoc2-c2c[nH]c3ncc(-c4ccccn4)cc23)c1F [Compound 73, 3-(4-(2,3-Difluoro-phenyl)-isoxazol-5-yl)-5-pyridin-2-yl-1H-pyrrolo[2,3-b]pyridine]	< 200 nM	–	1000 to 12500 nM
Nc1[nH]c2ncccc2c1-c1oncc1-c1cccc(F)c1F [Compound 152]	1000 to 12500 nM	–	–
